Experimental data taken from patent US9044426B2, “Antimicrobial peptides for treatment of infectious diseases” (Dr. Roland Berecz, priority 2011, dated 2015).
Where no end group is shown, it is not given here.

tested on: luminescent bacteria; assay: Luminescence screen of SPOT-synthesized peptides on luminescent bacteria, with recovery check; format: cell-based; settings: 0.1 M Tris buffer pH 7.4, 20 mM glucose, luminescence after 4 hours, recovery inspected after 18 h
Protocol: The peptides are synthesized using standard Fmoc-strategy on cellulose with the SPOT technology; they are positively charged peptides, which were then cleaved from the cellulose and solubilized in water. Peptides were transferred into wells containing luminescent bacteria, in 0.1 M Tris buffer (pH 7.4), containing 20 mM glucose. After 4 hours of incubation time, the luminescence was measured using a microtiter plate reader. Consequently, 50 μl of Mueller-Hinton media was added in order to check for recovery of the bacteria. The plates were manually inspected after 18 h of incubation time.

| Sequence | antimicrobial activity |
| --- | --- |
| LRRWIRIRW (also: cellulose-bound) [LRRWIRIRW (SEQ ID NO.:21), peptide synthesized on cellulose with the SPOT technology] | showed antimicrobial activity |
| KRKKRFKWW (also: cellulose-bound) [KRKKRFKWW (SEQ ID NO.:29), peptide synthesized on cellulose with the SPOT technology] | showed antimicrobial activity |
| WKWRVRVTI (also: cellulose-bound) [WKWRVRVTI (SEQ ID NO.:27), peptide synthesized on cellulose with the SPOT technology] | showed antimicrobial activity |
| RKFRWWVIR (also: cellulose-bound) [RKFRWWVIR (SEQ ID NO.:22), peptide synthesized on cellulose with the SPOT technology] | showed antimicrobial activity |
| RIRRWKFRW (also: cellulose-bound) [RIRRWKFRW (SEQ ID NO.:6), peptide synthesized on cellulose with the SPOT technology] | showed antimicrobial activity |
| RLKRWWKFL (also: cellulose-bound) [RLKRWWKFL (SEQ ID NO.:7), peptide synthesized on cellulose with the SPOT technology] | showed antimicrobial activity |
| KRRWRIWLV (also: cellulose-bound) [KRRWRIWLV (SEQ ID NO.:15), peptide synthesized on cellulose with the SPOT technology] | showed antimicrobial activity |
| RTKKWIVWI (also: cellulose-bound) [RTKKWIVWI (SEQ ID NO.:28), peptide synthesized on cellulose with the SPOT technology] | showed antimicrobial activity |
| YRLRVKWKW (also: cellulose-bound) [YRLRVKWKW (SEQ ID NO.:26), peptide synthesized on cellulose with the SPOT technology] | showed antimicrobial activity |
| RRRWWKLMM (also: cellulose-bound) [RRRWWKLMM (SEQ ID NO.:20), peptide synthesized on cellulose with the SPOT technology] | showed antimicrobial activity |
| KFKWWRMLI (also: cellulose-bound) [KFKWWRMLI (SEQ ID NO.:10), peptide synthesized on cellulose with the SPOT technology] | showed antimicrobial activity |
